Experimental findings from ChEMBL document CHEMBL4840343, “Fragment-based lead discovery of indazole-based compounds as AXL kinase inhibitors” (Bioorg Med Chem, 2021) are described below.

By IC50 is commonly meant the concentration at which inhibition is half-maximal. Low values mean greater potency in that assay, high ones weaker potency in that assay. By GI50 is commonly meant the concentration that inhibits growth by half. Low readings indicate more potent growth inhibition, high ones less potent growth inhibition. Usually logD stands for the decadic logarithm of the distribution of all forms, ionised or not, between an organic phase and buffer at a given pH. Higher therefore signals higher lipophilicity. As a reminder, the efflux ratio is the permeability from basolateral to apical divided by that in the opposite direction, in the common usage. In general, AUC(0-inf) refers to total exposure, with the tail of the curve extrapolated. The half-life is how long it takes for the measured level to halve. Low values mean fast loss, high ones slow loss. Usually Tmax stands for the time at which the peak concentration occurs. The Cmax is the peak of the concentration-time curve.

≈ marks a conversion by molar mass, not a printed value. Calls of active or inactive are those of the source. The calls are words filed in the database; no cut-off is given here.

Data set [1] addresses T1, Tyrosine-protein kinase receptor UFO (Homo sapiens, UniProt P30530).
T1 sequence (P30530 whole entry): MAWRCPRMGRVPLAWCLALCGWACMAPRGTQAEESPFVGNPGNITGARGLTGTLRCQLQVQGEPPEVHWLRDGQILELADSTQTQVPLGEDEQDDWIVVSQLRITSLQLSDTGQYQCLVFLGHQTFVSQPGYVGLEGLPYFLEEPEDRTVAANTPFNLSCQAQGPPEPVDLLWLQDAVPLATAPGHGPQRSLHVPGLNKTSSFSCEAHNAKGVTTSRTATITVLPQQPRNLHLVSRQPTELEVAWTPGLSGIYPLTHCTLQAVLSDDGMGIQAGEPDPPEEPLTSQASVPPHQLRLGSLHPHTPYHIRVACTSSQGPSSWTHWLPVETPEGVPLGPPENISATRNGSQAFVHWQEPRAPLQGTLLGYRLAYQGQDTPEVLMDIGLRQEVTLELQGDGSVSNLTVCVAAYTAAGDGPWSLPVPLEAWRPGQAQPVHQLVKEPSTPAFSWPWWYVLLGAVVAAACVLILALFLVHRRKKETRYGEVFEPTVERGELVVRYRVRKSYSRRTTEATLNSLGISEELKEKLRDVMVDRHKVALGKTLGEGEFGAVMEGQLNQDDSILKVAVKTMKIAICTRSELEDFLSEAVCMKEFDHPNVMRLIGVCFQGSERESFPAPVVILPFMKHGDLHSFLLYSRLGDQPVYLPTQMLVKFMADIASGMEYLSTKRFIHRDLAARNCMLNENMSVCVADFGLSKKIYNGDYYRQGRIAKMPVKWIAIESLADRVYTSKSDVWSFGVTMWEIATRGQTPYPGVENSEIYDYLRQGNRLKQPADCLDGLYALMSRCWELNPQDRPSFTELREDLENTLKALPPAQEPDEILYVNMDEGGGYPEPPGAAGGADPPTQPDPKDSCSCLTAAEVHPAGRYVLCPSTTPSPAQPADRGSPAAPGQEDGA
The experiment in a line: Inhibition of Axl (unknown origin) using 5'FAM labeled KKKKEEIYFFF-NH2 peptide as substrate incubated for 1.5 hrs.

The target in data set [2] is T1, Tyrosine-protein kinase receptor UFO. Description: Displacement of K5 tracer from Axl (unknown origin) expressed in human HEK293 cells cotransfected with NanoLuc measured after 2 hrs by NanoBRET assay. It is filed as cell-based. For orientation: Bioluminescence resonance energy transfer reports proximity on the nanometre scale.
The next data set has as its system SK-OV-3. Description: Antiproliferative activity against human SK-OV-3 cells as reduction in cell growth measured after 72 hrs by Celltiter-Glo luminescent assay. It is filed as functional. Background: In ATP-based viability assays light output follows the ATP content of the culture.
Data set [3] addresses Tyrosine-protein kinase receptor UFO (Homo sapiens) (UniProt P30530). The experiment in a line: Inhibition of Axl in human SK-OV-3 cells assessed as reduction in phosphorylated Axl level measured after 1 hr by Western blot analysis. It is filed as cell-based. The note with it: dose 1-10 µM.
For data set [4], the target named is Receptor-type tyrosine-protein kinase FLT3 (Homo sapiens) (UniProt P36888). The experiment in a line: Inhibition of FLT3 (unknown origin).
Chain of Receptor-type tyrosine-protein kinase FLT3 (Homo sapiens) (P36888 whole entry): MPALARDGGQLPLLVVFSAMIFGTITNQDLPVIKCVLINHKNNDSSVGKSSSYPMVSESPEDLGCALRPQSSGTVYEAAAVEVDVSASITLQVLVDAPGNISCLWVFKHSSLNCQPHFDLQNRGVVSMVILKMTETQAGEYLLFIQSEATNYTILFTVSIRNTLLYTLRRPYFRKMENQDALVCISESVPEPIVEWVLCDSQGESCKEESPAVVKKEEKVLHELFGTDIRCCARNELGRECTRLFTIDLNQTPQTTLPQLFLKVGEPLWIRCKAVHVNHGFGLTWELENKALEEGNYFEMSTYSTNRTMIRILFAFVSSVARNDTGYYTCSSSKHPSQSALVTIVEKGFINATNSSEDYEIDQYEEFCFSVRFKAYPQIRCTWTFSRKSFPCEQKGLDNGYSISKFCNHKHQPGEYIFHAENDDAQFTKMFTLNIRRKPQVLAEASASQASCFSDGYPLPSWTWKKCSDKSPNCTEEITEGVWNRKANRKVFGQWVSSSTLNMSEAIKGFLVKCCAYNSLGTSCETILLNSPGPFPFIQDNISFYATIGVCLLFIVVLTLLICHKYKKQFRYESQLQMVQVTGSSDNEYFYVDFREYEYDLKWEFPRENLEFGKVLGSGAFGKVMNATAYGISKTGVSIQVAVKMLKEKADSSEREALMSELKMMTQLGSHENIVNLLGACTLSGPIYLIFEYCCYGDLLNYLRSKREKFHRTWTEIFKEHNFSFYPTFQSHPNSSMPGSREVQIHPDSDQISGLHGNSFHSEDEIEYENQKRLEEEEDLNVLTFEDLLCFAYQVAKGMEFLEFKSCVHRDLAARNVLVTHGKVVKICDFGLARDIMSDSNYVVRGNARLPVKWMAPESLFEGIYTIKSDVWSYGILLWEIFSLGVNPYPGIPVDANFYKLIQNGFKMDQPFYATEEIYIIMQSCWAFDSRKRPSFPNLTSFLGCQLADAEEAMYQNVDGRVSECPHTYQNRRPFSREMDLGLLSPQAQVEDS
The target of data set [5] is MAP kinase-interacting serine/threonine-protein kinase 2 (Homo sapiens) (UniProt Q9HBH9). Description: Inhibition of MKNK2 (unknown origin).
Chain of MAP kinase-interacting serine/threonine-protein kinase 2 (Homo sapiens) (Q9HBH9 whole entry, looked up): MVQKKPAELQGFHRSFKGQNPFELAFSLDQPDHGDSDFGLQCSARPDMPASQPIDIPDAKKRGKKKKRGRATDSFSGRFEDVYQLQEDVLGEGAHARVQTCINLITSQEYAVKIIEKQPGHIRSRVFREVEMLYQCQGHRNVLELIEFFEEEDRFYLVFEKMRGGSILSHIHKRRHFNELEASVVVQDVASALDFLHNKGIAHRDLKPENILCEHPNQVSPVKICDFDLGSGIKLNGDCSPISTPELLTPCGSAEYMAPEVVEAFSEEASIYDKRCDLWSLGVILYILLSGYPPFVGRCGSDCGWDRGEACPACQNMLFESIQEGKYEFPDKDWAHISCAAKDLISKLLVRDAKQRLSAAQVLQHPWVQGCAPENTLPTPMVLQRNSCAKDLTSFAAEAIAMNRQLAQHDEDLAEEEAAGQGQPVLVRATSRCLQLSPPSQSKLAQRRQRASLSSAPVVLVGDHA
The target in data set [6] is Proto-oncogene tyrosine-protein kinase receptor Ret (Homo sapiens) (UniProt P07949). Description: Inhibition of RET (unknown origin).
Chain of Proto-oncogene tyrosine-protein kinase receptor Ret (Homo sapiens) (P07949 whole entry): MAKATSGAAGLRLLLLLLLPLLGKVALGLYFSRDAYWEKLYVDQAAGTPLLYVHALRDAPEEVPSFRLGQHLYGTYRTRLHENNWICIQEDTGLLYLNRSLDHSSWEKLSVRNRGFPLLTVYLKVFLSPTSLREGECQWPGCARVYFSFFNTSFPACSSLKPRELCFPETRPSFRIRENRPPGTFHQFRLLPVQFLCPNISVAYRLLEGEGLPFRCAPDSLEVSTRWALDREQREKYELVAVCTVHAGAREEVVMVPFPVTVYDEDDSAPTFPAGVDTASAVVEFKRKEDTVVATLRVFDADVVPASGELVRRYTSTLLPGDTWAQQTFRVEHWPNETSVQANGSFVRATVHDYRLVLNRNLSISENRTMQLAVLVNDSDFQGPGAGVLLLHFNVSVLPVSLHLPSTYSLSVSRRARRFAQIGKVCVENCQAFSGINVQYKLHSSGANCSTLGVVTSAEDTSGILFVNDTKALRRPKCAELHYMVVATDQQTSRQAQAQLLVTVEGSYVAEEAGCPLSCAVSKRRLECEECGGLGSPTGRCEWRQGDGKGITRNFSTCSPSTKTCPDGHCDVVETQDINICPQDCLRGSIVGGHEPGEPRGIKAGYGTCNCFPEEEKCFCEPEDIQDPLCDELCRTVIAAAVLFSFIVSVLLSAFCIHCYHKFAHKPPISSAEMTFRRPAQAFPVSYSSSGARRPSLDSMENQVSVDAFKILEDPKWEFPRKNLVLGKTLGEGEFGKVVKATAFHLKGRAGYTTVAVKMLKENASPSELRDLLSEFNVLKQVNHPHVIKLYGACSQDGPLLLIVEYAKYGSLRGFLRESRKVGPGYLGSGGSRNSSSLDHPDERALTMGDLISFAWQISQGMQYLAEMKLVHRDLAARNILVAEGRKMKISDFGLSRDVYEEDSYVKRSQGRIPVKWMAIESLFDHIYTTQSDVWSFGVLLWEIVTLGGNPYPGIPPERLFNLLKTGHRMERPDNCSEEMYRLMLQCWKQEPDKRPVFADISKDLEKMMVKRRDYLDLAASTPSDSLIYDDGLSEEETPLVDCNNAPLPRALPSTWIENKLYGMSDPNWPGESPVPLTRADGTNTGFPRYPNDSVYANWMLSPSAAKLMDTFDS
Data set [7] can be described thus: Distribution coefficient, logD of compound at pH 7.4. It is filed as physicochemical. The settings on record: octanol/water.
The nature of data set [8]: Intrinsic clearance in mouse liver microsomes. It is filed as ADME, Microsome. The settings on record: read-out: CLH.
Data set [9] is described as follows: Intrinsic clearance in human liver microsomes. It counts as ADME, Microsome. The note with it: read-out: CLH.
The nature of data set [10]: Thermodynamic solubility of compound at pH 7.4. The settings on record: buffer, read-out: Therm_solubility. It is filed as physicochemical.
Data set [11] in a line: Permeability across apical to basolateral side in human Caco-2 cells. It counts as ADME, cell-based. The note with it: read-out: permeability. Background: Caco-2 monolayers are a common model of the intestinal barrier.
Data set [12] can be described thus: Permeability across basolateral to apical side in human Caco-2 cells. The note with it: read-out: permeability. It counts as ADME, cell-based.
A short description of data set [13]: Efflux ratio of permeability in human Caco-2 cells. It is filed as ADME, cell-based.
A short description of data set [14]: AUC (0 to infinity) in mouse at 5 mg/kg, po. It counts as ADME, organism-based. On the set-up: route oral, time infinity, dose 5 mg/kg. The settings on record: in vivo.
Data set [15] in a line: Half life in mouse at 5 mg/kg, po. It counts as ADME, organism-based. The settings on record: in vivo.
Data set [16] can be described thus: Tmax in mouse at 5 mg/kg, po. It is filed as ADME, organism-based. The note with it: in vivo.
Data set [17] can be described thus: Cmax in mouse at 5 mg/kg, po. It counts as ADME, organism-based. Also on record: route oral, dose 5 mg/kg. The settings on record: in vivo.
In data set [18] the target is Tyrosine-protein kinase receptor UFO (Homo sapiens) (UniProt P30530). Description: Inhibition of Axl in human SK-OV-3 cells assessed as reduction in phosphorylated ERK1/2 level at 1 to 10 uM measured after 1 hr by Western blot analysis. It is filed as cell-based. The settings on record: dose 1-10 µM.

With `COc1ccc(-n2cc(-c3n[nH]c4cc(Cl)c(N[C@@H]5CCN(C6COC6)C5)cc34)cn2)cc1`, the IC50 turned out to be 41.5 µM in data set [1] and 11.4 µM in data set [2]. For the same compound, it took 1.02 µM to inhibit growth in the data set with SK-OV-3 by half (GI50). In addition, the inhibition result in data set [3] is “Dose-Dependent Effect”. Moreover, the inhibition entry in data set [4], in [5], in data set [6] and in data set [18] was “Active” throughout. In [7], this compound returned a logD of 4.75. For the same compound, the results for the microsomal CLint in data set [8] and in data set [9] were 44.8 µL/min/mg and 129 µL/min/mg, respectively. Also, the solubility thermodynamic in [10] is 1.84 µg/mL (≈ 3.96 µM). For the same compound, in data set [11], the Papp A→B was 152 nm/s. The Papp B→A in [12] is 84.1 nm/s. Besides, the efflux ratio in data set [13] came out at 0.55. For the same compound, in data set [14], the AUC(0-inf) was found to be 1.62 µg·h/mL. This compound gave a half-life in data set [15] of 2.46 h. The Tmax in data set [16] worked out at 0.25 h. Besides, the Cmax in data set [17] is 0.46 µg/mL.
